Results taken from patent US10167262B2, “Herbicidal substituted 3-arylpyrazoles” (FMC CORPORATION, priority 2014, dated 2019).

How the values were obtained:
Assay in all cases: Test A pre-/postemergence greenhouse herbicide test, visual injury rating 0-100
Assay type in all cases: in vivo
[1] = test system: wheat (Triticum aestivum)
Description: (§1) Seeds of plant species selected from barnyardgrass (Echinochloa crus-galli), large (Lg) crabgrass (Digitaria sanguinalis), giant foxtail (Setaria faberii), morningglory (Ipomoea spp.), pigweed (Amaranthus retroflexus), velvetleaf (Abutilon theophrasti), wheat (Triticum aestivum), and corn (Zea mays) were planted into a blend of loam soil and sand and treated preemergence with a directed soil spray using test chemicals formulated in a non-phytotoxic solvent mixture which included a surfactant. At the same time these species were also treated with postemergence applications of test chemicals formulated in the same manner. Plants ranged in height from 2 to 10 cm and were in the one- to two-leaf stage for the postemergence treatment. Treated plants and untreated controls were maintained in a greenhouse for approximately 10 days, after which time all treated plants were compared to untreated controls and visually evaluated for injury. Plant response ratings, summarized in Table A, are based on a 0 to 100 scale where 0 is no effect and 100 is complete control. A dash (-) response means no test result.

corn (Zea mays) = test system: corn (Zea mays)
Description: as §1

[2] = test system: barnyardgrass (Echinochloa crus-galli)
Description: as §1

[3] = test system: pigweed (Amaranthus retroflexus)
Description: as §1

[4] = test system: morningglory (Ipomoea spp.)
Description: as §1

[5] = test system: large (Lg) crabgrass (Digitaria sanguinalis)
Description: as §1

[6] = test system: giant foxtail (Setaria faberii)
Description: as §1

[7] = test system: velvetleaf (Abutilon theophrasti)
Description: as §1

Structure (SMILES): CCn1cc(C(=O)c2cncc(F)c2)c(-c2cc(Cl)cc(Cl)c2)n1 [Compound 21]
- Plant response rating (0 to 100 scale), Wheat ([1]; Postemergence, 1000 g ai/ha): 0
- Plant response rating (0 to 100 scale), Wheat ([1]; Preemergence, 1000 g ai/ha): 0
- Plant response rating (0 to 100 scale), Corn (corn (Zea mays); Postemergence, 1000 g ai/ha): 0
- Plant response rating (0 to 100 scale), Corn (corn (Zea mays); Preemergence, 1000 g ai/ha): 0
- Plant response rating (0 to 100 scale), Barnyardgrass ([2]; Postemergence, 1000 g ai/ha): 0
- Plant response rating (0 to 100 scale), Barnyardgrass ([2]; Preemergence, 1000 g ai/ha): 0
- Plant response rating (0 to 100 scale), Pigweed ([3]; Postemergence, 1000 g ai/ha): 100
- Plant response rating (0 to 100 scale), Pigweed ([3]; Preemergence, 1000 g ai/ha): 80
- Plant response rating (0 to 100 scale), Morningglory ([4]; Postemergence, 1000 g ai/ha): 0
- Plant response rating (0 to 100 scale), Morningglory ([4]; Preemergence, 1000 g ai/ha): 0
- Plant response rating (0 to 100 scale), Crabgrass, Large ([5]; Postemergence, 1000 g ai/ha): 10
- Plant response rating (0 to 100 scale), Crabgrass, Large ([5]; Preemergence, 1000 g ai/ha): 0
- Plant response rating (0 to 100 scale), Foxtail, Giant ([6]; Postemergence, 1000 g ai/ha): 0
- Plant response rating (0 to 100 scale), Foxtail, Giant ([6]; Preemergence, 1000 g ai/ha): 0
- Plant response rating (0 to 100 scale), Velvetleaf ([7]; Postemergence, 1000 g ai/ha): 90
- Plant response rating (0 to 100 scale), Velvetleaf ([7]; Preemergence, 1000 g ai/ha): 80

Structure (SMILES): Clc1cc(Cl)cc(-c2n[nH]cc2C(=NN2CCCCC2)c2ccccc2)c1 [Compound 51]
- Plant response rating (0 to 100 scale), Wheat ([1]; Postemergence, 1000 g ai/ha): 0
- Plant response rating (0 to 100 scale), Wheat ([1]; Preemergence, 1000 g ai/ha): 0
- Plant response rating (0 to 100 scale), Corn (corn (Zea mays); Postemergence, 1000 g ai/ha): 0
- Plant response rating (0 to 100 scale), Corn (corn (Zea mays); Preemergence, 1000 g ai/ha): 0
- Plant response rating (0 to 100 scale), Barnyardgrass ([2]; Postemergence, 1000 g ai/ha): 0
- Plant response rating (0 to 100 scale), Barnyardgrass ([2]; Preemergence, 1000 g ai/ha): 0
- Plant response rating (0 to 100 scale), Pigweed ([3]; Postemergence, 1000 g ai/ha): 90
- Plant response rating (0 to 100 scale), Pigweed ([3]; Preemergence, 1000 g ai/ha): 100
- Plant response rating (0 to 100 scale), Morningglory ([4]; Postemergence, 1000 g ai/ha): 0
- Plant response rating (0 to 100 scale), Morningglory ([4]; Preemergence, 1000 g ai/ha): 0
- Plant response rating (0 to 100 scale), Crabgrass, Large ([5]; Postemergence, 1000 g ai/ha): 0
- Plant response rating (0 to 100 scale), Crabgrass, Large ([5]; Preemergence, 1000 g ai/ha): 0
- Plant response rating (0 to 100 scale), Foxtail, Giant ([6]; Postemergence, 1000 g ai/ha): 0
- Plant response rating (0 to 100 scale), Foxtail, Giant ([6]; Preemergence, 1000 g ai/ha): 0
- Plant response rating (0 to 100 scale), Velvetleaf ([7]; Postemergence, 1000 g ai/ha): 90
- Plant response rating (0 to 100 scale), Velvetleaf ([7]; Preemergence, 1000 g ai/ha): 90

Structure (SMILES): CCn1cc(C(=NNc2ccccc2)c2ccccc2)c(-c2cc(Cl)cc(Cl)c2)n1 [Compound 36]
- Plant response rating (0 to 100 scale), Wheat ([1]; Postemergence, 125 g ai/ha): 0
- Plant response rating (0 to 100 scale), Wheat ([1]; Postemergence, 500 g ai/ha): 0
- Wheat plant response rating (0 = no effect, 100 = complete control) ([1]; Preemergence, 125 g ai/ha): 0
- Plant response rating (0 to 100 scale), Wheat ([1]; Preemergence, 500 g ai/ha): 0
- Plant response rating (0 to 100 scale), Corn (corn (Zea mays); Postemergence, 125 g ai/ha): 0
- Plant response rating (0 to 100 scale), Corn (corn (Zea mays); Postemergence, 500 g ai/ha): 0
- Corn plant response rating (0 = no effect, 100 = complete control) (corn (Zea mays); Preemergence, 125 g ai/ha): 0
- Plant response rating (0 to 100 scale), Corn (corn (Zea mays); Preemergence, 500 g ai/ha): 0
- Plant response rating (0 to 100 scale), Barnyardgrass ([2]; Postemergence, 125 g ai/ha): 0
- Plant response rating (0 to 100 scale), Barnyardgrass ([2]; Postemergence, 500 g ai/ha): 0
- Barnyardgrass plant response rating (0 = no effect, 100 = complete control) ([2]; Preemergence, 125 g ai/ha): 0
- Plant response rating (0 to 100 scale), Barnyardgrass ([2]; Preemergence, 500 g ai/ha): 0
- Plant response rating (0 to 100 scale), Pigweed ([3]; Postemergence, 125 g ai/ha): 30
- Plant response rating (0 to 100 scale), Pigweed ([3]; Postemergence, 500 g ai/ha): 80
- Pigweed plant response rating (0 = no effect, 100 = complete control) ([3]; Preemergence, 125 g ai/ha): 0
- Plant response rating (0 to 100 scale), Pigweed ([3]; Preemergence, 500 g ai/ha): 70
- Plant response rating (0 to 100 scale), Morningglory ([4]; Postemergence, 125 g ai/ha): 0
- Plant response rating (0 to 100 scale), Morningglory ([4]; Postemergence, 500 g ai/ha): 0
- Morningglory plant response rating (0 = no effect, 100 = complete control) ([4]; Preemergence, 125 g ai/ha): 0
- Plant response rating (0 to 100 scale), Morningglory ([4]; Preemergence, 500 g ai/ha): 0
- Plant response rating (0 to 100 scale), Crabgrass, Large ([5]; Postemergence, 125 g ai/ha): 0
- Plant response rating (0 to 100 scale), Crabgrass, Large ([5]; Postemergence, 500 g ai/ha): 0
- Crabgrass, Large plant response rating (0 = no effect, 100 = complete control) ([5]; Preemergence, 125 g ai/ha): 0
- Plant response rating (0 to 100 scale), Crabgrass, Large ([5]; Preemergence, 500 g ai/ha): 0
- Plant response rating (0 to 100 scale), Foxtail, Giant ([6]; Postemergence, 125 g ai/ha): 0
- Plant response rating (0 to 100 scale), Foxtail, Giant ([6]; Postemergence, 500 g ai/ha): 0
- Foxtail, Giant plant response rating (0 = no effect, 100 = complete control) ([6]; Preemergence, 125 g ai/ha): 0
- Plant response rating (0 to 100 scale), Foxtail, Giant ([6]; Preemergence, 500 g ai/ha): 0
- Plant response rating (0 to 100 scale), Velvetleaf ([7]; Postemergence, 125 g ai/ha): 70
- Plant response rating (0 to 100 scale), Velvetleaf ([7]; Postemergence, 500 g ai/ha): 90
- Velvetleaf plant response rating (0 = no effect, 100 = complete control) ([7]; Preemergence, 125 g ai/ha): 20
- Plant response rating (0 to 100 scale), Velvetleaf ([7]; Preemergence, 500 g ai/ha): 20
